One block for each compound: values may come before it. Active and inactive are the calls of the source. The calls are words filed in the database; no cut-off is given here.
Columns and labels:
[1] = molecular target: T1, Thymidylate synthase (Homo sapiens, UniProt P04818); test: The apparent association constant (Ki) with dTMP synthetase enzyme from chick embryo in the absence of CH2-H4 folate was evaluated; Active; parameters: species or system Gallus gallus; details: target entry is the homologue from another species
Target sequence in this assay (P04818 whole entry): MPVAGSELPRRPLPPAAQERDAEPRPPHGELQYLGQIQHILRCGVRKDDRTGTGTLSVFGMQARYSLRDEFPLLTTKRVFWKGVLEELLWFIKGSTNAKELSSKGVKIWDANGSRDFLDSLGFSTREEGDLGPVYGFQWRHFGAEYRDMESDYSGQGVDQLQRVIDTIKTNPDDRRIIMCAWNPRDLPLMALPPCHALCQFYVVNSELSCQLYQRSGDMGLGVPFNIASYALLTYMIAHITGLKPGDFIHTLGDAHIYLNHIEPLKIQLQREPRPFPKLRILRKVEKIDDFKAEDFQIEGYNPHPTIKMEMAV

[2] = molecular target: T2, Thymidylate synthase (Lactobacillus casei, UniProt P00469); test: The apparent association constant (Ki) with dTMP synthetase enzyme from chick embryo in the absence of CH2-H4 folate was evaluated; parameters: species or system Lacticaseibacillus casei
T2 sequence (P00469 whole entry): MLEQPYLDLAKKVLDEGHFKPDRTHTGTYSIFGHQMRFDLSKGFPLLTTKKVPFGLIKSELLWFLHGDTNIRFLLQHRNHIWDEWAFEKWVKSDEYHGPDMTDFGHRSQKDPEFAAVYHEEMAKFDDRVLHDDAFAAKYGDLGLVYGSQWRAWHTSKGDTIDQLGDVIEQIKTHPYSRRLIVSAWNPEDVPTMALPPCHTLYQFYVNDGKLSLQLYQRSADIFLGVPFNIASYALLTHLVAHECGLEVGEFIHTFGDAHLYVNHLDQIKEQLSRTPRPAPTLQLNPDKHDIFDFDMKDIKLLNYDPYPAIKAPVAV

[3] = molecular target: T1, Thymidylate synthase; test: Compound (4.5 uM) was evaluated for the percent binding to the excess dTMP synthetase (3.9 uM and 7.8 uM sites) enzyme from chick embryo, […] of CH2-H4 folate. This complex was incubated 25 degrees Celsius for 2 hours.; details: Gallus gallus; target entry is the homologue from another species
Target sequence in this assay (P04818 2-313 limits assumed): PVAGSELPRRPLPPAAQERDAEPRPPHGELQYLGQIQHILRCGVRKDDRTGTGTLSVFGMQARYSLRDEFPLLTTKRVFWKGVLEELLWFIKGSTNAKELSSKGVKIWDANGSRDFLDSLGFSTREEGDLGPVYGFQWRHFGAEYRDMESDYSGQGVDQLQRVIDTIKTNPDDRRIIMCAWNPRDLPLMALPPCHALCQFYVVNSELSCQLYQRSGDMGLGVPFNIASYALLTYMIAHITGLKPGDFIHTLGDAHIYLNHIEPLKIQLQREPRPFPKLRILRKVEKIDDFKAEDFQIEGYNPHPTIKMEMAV

[4] = molecular target: T1, Thymidylate synthase; test: Compound was evaluated for time-dependent loss of activity with use of 15 nM of dTMP synthetase enzyme from chick embryo in the presence of […] of CH2-H4 folate at about 20 seconds; type: functional; details: Gallus gallus; target entry is the homologue from another species
Target sequence in this assay (P04818 2-313 limits assumed): as above

[5] = molecular target: T1, Thymidylate synthase; test: Compound was evaluated for the dissociation of the radiolabeled N4-HOdCMP by competitive binding to the excess dTMP synthetase; Active; details: Gallus gallus
Target sequence in this assay (P04818 2-313 limits assumed): as above

[6] = molecular target: T1, Thymidylate synthase; test: The apparent association constant (Ki) with dTMP synthetase enzyme from chick embryo in the absence of CH2-H4 folate was evaluated using conventional spectrophotometric assay; Active; parameters: species or system Gallus gallus
Target sequence in this assay (P04818 whole entry): as the sequence (P04818 whole entry) above

Ki [1]: Active
SMILES: Cc1cn([C@H]2C[C@H](O)[C@@H](COP(=O)(O)O)O2)c(=O)[nH]c1=O [THYMIDINE MONOPHOSPHATE]

SMILES: O=c1nc(NO)ccn1[C@H]1C[C@H](O)[C@@H](COP(=O)(O)O)O1
Ki [2]: 8 µM
Binding [3]: 90%
Loss of activity [4]: 50%
Dissociation [5]: Active

Ki [6]: Active
SMILES: O=c1ccn([C@H]2C[C@H](O)[C@@H](COP(=O)(O)O)O2)c(=O)[nH]1 [DEOXYURIDINE MONOPHOSPHATE]
